According to ChEMBL document CHEMBL4619753, “Treating Cancer by Spindle Assembly Checkpoint Abrogation: Discovery of Two Clinical Candidates, BAY 1161909 and BAY 1217389, Targeting MPS1 Kinase” (J Med Chem, 2020):
pIC50: −log10 of the molar value.

system: not listed separately; assay: Lipophilicity, LogD of compound at pH 7.5 by reverse phase HPLC analysis; type: physicochemical; conditions: buffer

SMILES | chromatographic logD
O=C(Cc1ccc(F)cc1)Nc1ccc(-c2ccc3nc(Nc4ccc(C(=O)N5CCOCC5)cc4OCC(F)(F)F)nn3c2)cc1 | 3.9

system: not listed separately; assay: Blood clearance in Wistar rat at 0.1 to 0.5 mg/kg, iv administered as bolus dose measured up to 24 hrs by HPLC-MS-MS analysis; type: ADME, organism-based; conditions: not given

SMILES | clearance [mL/min/kg]
Cc1cc(-c2cnc3c(NCCC(F)(F)F)cc(C4(c5cc(F)ccc5O)CC4)nn23)ccc1C(=O)NC1CC1 | 14.2
COc1cc(S(C)(=O)=O)ccc1Nc1nc2ccc(-c3ccc(NC(=O)[C@H](C)c4ccc(F)cc4)cc3)cn2n1 [BAY-1161909] | 3.17
COc1cc(C(=O)N2CC(F)C2)ccc1Nc1nc2ccc(-c3ccc(NC(=O)[C@H](C)c4ccc(F)cc4)cc3)cn2n1 | 5.17
C=C(c1ccc(OC)c(F)c1)c1cc(NCCC(F)(F)F)c2ncc(-c3ccc(C(=O)NC4CC4)c(C)c3)n2n1 | 14.5

system: not listed separately; assay: Volume of distribution at steady state in Wistar rat at 0.1 to 0.5 mg/kg, iv administered as bolus dose measured up to 24 hrs by HPLC-MS-MS analysis; type: ADME, organism-based; conditions: Wistar, in vivo, read-out: Vdss

SMILES | Vd [L/kg]
COc1ccc(Oc2cc(NCCC(F)(F)F)c3ncc(-c4ccc(C(=O)NC5CC5)c(C)c4)n3n2)c(F)c1F [BAY-1217389] | 2.2
Cc1cc(-c2cnc3c(NCCC(F)(F)F)cc(C4(c5cc(F)ccc5O)CC4)nn23)ccc1C(=O)NC1CC1 | 3.1
COc1cc(S(C)(=O)=O)ccc1Nc1nc2ccc(-c3ccc(NC(=O)[C@H](C)c4ccc(F)cc4)cc3)cn2n1 [BAY-1161909] | 2.4
COc1cc(C(=O)N2CC(F)C2)ccc1Nc1nc2ccc(-c3ccc(NC(=O)[C@H](C)c4ccc(F)cc4)cc3)cn2n1 | 2.1
C=C(c1ccc(OC)c(F)c1)c1cc(NCCC(F)(F)F)c2ncc(-c3ccc(C(=O)NC4CC4)c(C)c3)n2n1 | 2.1

same assay, conditions: in vivo, 24 h

SMILES | Vdss [L/kg]
COc1cc(N2CCOC2=O)ccc1Nc1nc2ccc(-c3ccc(NC(=O)[C@H](C)c4ccc(F)cc4)cc3)cn2n1 | 1.4

system: not listed separately; assay: Half life in Wistar rat at 0.1 to 0.5 mg/kg, iv administered as bolus dose measured up to 24 hrs by HPLC-MS-MS analysis; type: ADME, organism-based; conditions: Wistar, in vivo

SMILES | half-life [h]
COc1ccc(Oc2cc(NCCC(F)(F)F)c3ncc(-c4ccc(C(=O)NC5CC5)c(C)c4)n3n2)c(F)c1F [BAY-1217389] | 7.8
Cc1cc(-c2cnc3c(NCCC(F)(F)F)cc(C4(c5cc(F)ccc5O)CC4)nn23)ccc1C(=O)NC1CC1 | 4.7
COc1cc(S(C)(=O)=O)ccc1Nc1nc2ccc(-c3ccc(NC(=O)[C@H](C)c4ccc(F)cc4)cc3)cn2n1 [BAY-1161909] | 14
COc1cc(C(=O)N2CC(F)C2)ccc1Nc1nc2ccc(-c3ccc(NC(=O)[C@H](C)c4ccc(F)cc4)cc3)cn2n1 | 5.3
C=C(c1ccc(OC)c(F)c1)c1cc(NCCC(F)(F)F)c2ncc(-c3ccc(C(=O)NC4CC4)c(C)c3)n2n1 | 3.1

same assay, conditions: in vivo, 24 h

SMILES | t1/2 [h]
COc1cc(N2CCOC2=O)ccc1Nc1nc2ccc(-c3ccc(NC(=O)[C@H](C)c4ccc(F)cc4)cc3)cn2n1 | 8

system: not listed separately; assay: Blood clearance in Beagle dog at 0.1 to 0.5 mg/kg administered as iv infusion measured up to 24 hrs by HPLC-MS-MS analysis; type: ADME, organism-based, Canis lupus familiaris; conditions: not given

SMILES | clearance [mL/min/kg]
Cc1cc(-c2cnc3c(NCCC(F)(F)F)cc(C4(c5cc(F)ccc5O)CC4)nn23)ccc1C(=O)NC1CC1 | 21.7
COc1cc(S(C)(=O)=O)ccc1Nc1nc2ccc(-c3ccc(NC(=O)[C@H](C)c4ccc(F)cc4)cc3)cn2n1 [BAY-1161909] | 23.3
COc1cc(C(=O)N2CC(F)C2)ccc1Nc1nc2ccc(-c3ccc(NC(=O)[C@H](C)c4ccc(F)cc4)cc3)cn2n1 | 9.83
C=C(c1ccc(OC)c(F)c1)c1cc(NCCC(F)(F)F)c2ncc(-c3ccc(C(=O)NC4CC4)c(C)c3)n2n1 | 56.7

system: HT-29; assay: cells; conditions: Homo sapiens, HT-29, 96 h
Description: Antiproliferative activity against human HT-29 cells after 96 hrs by crystal violet staining based assay

SMILES | pIC50
Cc1cc(-c2cnn3c(NC[C@H]4C[C@@](C)(O)C4)cc(Oc4cccnc4)nc23)ccc1C(=O)NC1CC1 [LUVIXASERTIB] | 6.25

system: not listed separately; assay: Dose normalized AUC in Wistar rat at 0.2 to 1 mg/kg, po measured up to 24 hrs by HPLC-MS-MS analysis; type: ADME, organism-based; conditions: in vivo

SMILES | AUC/dose [kg·h/L]
N#Cc1ccccc1Nc1nc2ccc(-c3ccc(NC(=O)Cc4ccc(F)cc4)cc3)cn2n1 | 0.066
N#Cc1ccccc1Nc1nc2ccc(-c3ccc(NC(=O)Cc4ccccc4)cc3)cn2n1 | 0.084
COc1ccc(Oc2cc(NCCC(F)(F)F)c3ncc(-c4ccc(C(=O)NC5CC5)c(C)c4)n3n2)c(F)c1F [BAY-1217389] | 2.4
CNC(=O)Nc1ccc(-c2cnc3c(NCC(C)C)nccn23)cc1 | 4.9
COc1cc(S(C)(=O)=O)ccc1Nc1nc2ccc(-c3ccc(NC(=O)Cc4ccc(F)cc4)cc3)cn2n1 | 0.98
Cc1cc(-c2cnc3c(NCC(C)C)nccn23)ccc1C(=O)NC1CC1 | 0.22
Cc1cc(-c2cnc3c(NCCC(F)(F)F)cc(C4(c5cc(F)ccc5O)CC4)nn23)ccc1C(=O)NC1CC1 | 0.76
COc1cc(S(C)(=O)=O)ccc1Nc1nc2ccc(-c3ccc(NC(=O)[C@H](C)c4ccc(F)cc4)cc3)cn2n1 [BAY-1161909] | 3.3
COc1cc(N2CCOC2=O)ccc1Nc1nc2ccc(-c3ccc(NC(=O)[C@H](C)c4ccc(F)cc4)cc3)cn2n1 | 4.2
COc1cc(N2CCOC2=O)ccc1Nc1nc2ccc(-c3ccc(NC(=O)Cc4ccc(F)cc4)cc3)cn2n1 | 1.9
COc1cc(C(=O)N2C[C@@H]3C[C@H]2CO3)ccc1Nc1nc2ccc(-c3ccc(NC(=O)Cc4ccc(F)cc4)cc3)cn2n1 | 0.23
COc1cc(C(=O)N2CC(F)C2)ccc1Nc1nc2ccc(-c3ccc(NC(=O)[C@H](C)c4ccc(F)cc4)cc3)cn2n1 | 1.8
C=C(c1ccc(OC)c(F)c1)c1cc(NCCC(F)(F)F)c2ncc(-c3ccc(C(=O)NC4CC4)c(C)c3)n2n1 | 0.47

system: not listed separately; assay: Oral bioavailability in Beagle dog at 0.2 to 1 mg/kg measured up to 24 hrs by HPLC-MS-MS analysis; type: ADME, organism-based, Canis lupus familiaris; conditions: in vivo

SMILES | bioavailability [%]
COc1ccc(Oc2cc(NCCC(F)(F)F)c3ncc(-c4ccc(C(=O)NC5CC5)c(C)c4)n3n2)c(F)c1F [BAY-1217389] | 71
Cc1cc(-c2cnc3c(NCCC(F)(F)F)cc(C4(c5cc(F)ccc5O)CC4)nn23)ccc1C(=O)NC1CC1 | 81
COc1cc(S(C)(=O)=O)ccc1Nc1nc2ccc(-c3ccc(NC(=O)[C@H](C)c4ccc(F)cc4)cc3)cn2n1 [BAY-1161909] | 63
COc1cc(C(=O)N2CC(F)C2)ccc1Nc1nc2ccc(-c3ccc(NC(=O)[C@H](C)c4ccc(F)cc4)cc3)cn2n1 | 39
C=C(c1ccc(OC)c(F)c1)c1cc(NCCC(F)(F)F)c2ncc(-c3ccc(C(=O)NC4CC4)c(C)c3)n2n1 | 1.4

system: HeLa; assay: cells; conditions: Homo sapiens, 96 h
Description: Antiproliferative activity against human HeLa cells after 96 hrs by crystal violet staining based assay

SMILES | pIC50
N#Cc1ccccc1Nc1nc2ccc(-c3ccc(NC(=O)Cc4ccc(F)cc4)cc3)cn2n1 | 6.58
N#Cc1ccccc1Nc1nc2ccc(-c3ccc(NC(=O)Cc4ccccc4)cc3)cn2n1 | 6.16
COc1cc(S(C)(=O)=O)ccc1Nc1nc2ccc(-c3ccc(NC(=O)Cc4ccc(F)cc4)cc3)cn2n1 | 6.61
COc1cc(S(C)(=O)=O)ccc1Nc1nc2ccc(-c3ccc(NC(=O)[C@H](C)c4ccc(F)cc4)cc3)cn2n1 [BAY-1161909] | 6.59
COc1cc(N2CCOC2=O)ccc1Nc1nc2ccc(-c3ccc(NC(=O)[C@H](C)c4ccc(F)cc4)cc3)cn2n1 | 6.57
COc1cc(N2CCOC2=O)ccc1Nc1nc2ccc(-c3ccc(NC(=O)Cc4ccc(F)cc4)cc3)cn2n1 | 6.92
COc1cc(C(=O)N2C[C@@H]3C[C@H]2CO3)ccc1Nc1nc2ccc(-c3ccc(NC(=O)Cc4ccc(F)cc4)cc3)cn2n1 | 7.30
COc1cc(C(=O)N2CC(F)C2)ccc1Nc1nc2ccc(-c3ccc(NC(=O)[C@H](C)c4ccc(F)cc4)cc3)cn2n1 | 7.24
O=C(Cc1ccc(F)cc1)Nc1ccc(-c2ccc3nc(Nc4ccc(C(=O)N5CCOCC5)cc4OCC(F)(F)F)nn3c2)cc1 | 7.59

system: not listed separately; assay: Dose normalized AUC in Beagle dog at 0.2 to 1 mg/kg, po measured up to 24 hrs by HPLC-MS-MS analysis; type: ADME, organism-based, Canis lupus familiaris; conditions: in vivo

SMILES | AUC/dose [kg·h/L]
COc1ccc(Oc2cc(NCCC(F)(F)F)c3ncc(-c4ccc(C(=O)NC5CC5)c(C)c4)n3n2)c(F)c1F [BAY-1217389] | 2.5
Cc1cc(-c2cnc3c(NCCC(F)(F)F)cc(C4(c5cc(F)ccc5O)CC4)nn23)ccc1C(=O)NC1CC1 | 1.1
COc1cc(S(C)(=O)=O)ccc1Nc1nc2ccc(-c3ccc(NC(=O)[C@H](C)c4ccc(F)cc4)cc3)cn2n1 [BAY-1161909] | 0.52
COc1cc(C(=O)N2CC(F)C2)ccc1Nc1nc2ccc(-c3ccc(NC(=O)[C@H](C)c4ccc(F)cc4)cc3)cn2n1 | 0.64
C=C(c1ccc(OC)c(F)c1)c1cc(NCCC(F)(F)F)c2ncc(-c3ccc(C(=O)NC4CC4)c(C)c3)n2n1 | 0.005

system: not listed separately; assay: Oral bioavailability in Wistar rat at 0.2 to 1 mg/kg measured up to 24 hrs by HPLC-MS-MS analysis; type: ADME, organism-based; conditions: in vivo

SMILES | bioavailability [%]
N#Cc1ccccc1Nc1nc2ccc(-c3ccc(NC(=O)Cc4ccc(F)cc4)cc3)cn2n1 | 6.6
N#Cc1ccccc1Nc1nc2ccc(-c3ccc(NC(=O)Cc4ccccc4)cc3)cn2n1 | 12
COc1ccc(Oc2cc(NCCC(F)(F)F)c3ncc(-c4ccc(C(=O)NC5CC5)c(C)c4)n3n2)c(F)c1F [BAY-1217389] | 72
CNC(=O)Nc1ccc(-c2cnc3c(NCC(C)C)nccn23)cc1 | 94
COc1cc(S(C)(=O)=O)ccc1Nc1nc2ccc(-c3ccc(NC(=O)Cc4ccc(F)cc4)cc3)cn2n1 | 49
Cc1cc(-c2cnc3c(NCC(C)C)nccn23)ccc1C(=O)NC1CC1 | 20
Cc1cc(-c2cnc3c(NCCC(F)(F)F)cc(C4(c5cc(F)ccc5O)CC4)nn23)ccc1C(=O)NC1CC1 | 45
COc1cc(S(C)(=O)=O)ccc1Nc1nc2ccc(-c3ccc(NC(=O)[C@H](C)c4ccc(F)cc4)cc3)cn2n1 [BAY-1161909] | 49
COc1cc(N2CCOC2=O)ccc1Nc1nc2ccc(-c3ccc(NC(=O)[C@H](C)c4ccc(F)cc4)cc3)cn2n1 | 49
COc1cc(N2CCOC2=O)ccc1Nc1nc2ccc(-c3ccc(NC(=O)Cc4ccc(F)cc4)cc3)cn2n1 | 52
COc1cc(C(=O)N2C[C@@H]3C[C@H]2CO3)ccc1Nc1nc2ccc(-c3ccc(NC(=O)Cc4ccc(F)cc4)cc3)cn2n1 | 17
COc1cc(C(=O)N2CC(F)C2)ccc1Nc1nc2ccc(-c3ccc(NC(=O)[C@H](C)c4ccc(F)cc4)cc3)cn2n1 | 55
C=C(c1ccc(OC)c(F)c1)c1cc(NCCC(F)(F)F)c2ncc(-c3ccc(C(=O)NC4CC4)c(C)c3)n2n1 | 33

system: not listed separately; assay: Aqueous solubility of the compound; type: physicochemical; conditions: buffer

SMILES | solubility
O=C(Cc1ccc(F)cc1)Nc1ccc(-c2ccc3nc(Nc4ccc(C(=O)N5CCOCC5)cc4OCC(F)(F)F)nn3c2)cc1 | Insoluble

system: not listed separately; assay: Half life in Beagle dog at 0.1 to 0.5 mg/kg, administered as iv infusion measured up to 24 hrs by HPLC-MS-MS analysis; type: ADME, organism-based, Canis lupus familiaris; conditions: in vivo

SMILES | half-life [h]
COc1ccc(Oc2cc(NCCC(F)(F)F)c3ncc(-c4ccc(C(=O)NC5CC5)c(C)c4)n3n2)c(F)c1F [BAY-1217389] | 13
Cc1cc(-c2cnc3c(NCCC(F)(F)F)cc(C4(c5cc(F)ccc5O)CC4)nn23)ccc1C(=O)NC1CC1 | 2.1
COc1cc(S(C)(=O)=O)ccc1Nc1nc2ccc(-c3ccc(NC(=O)[C@H](C)c4ccc(F)cc4)cc3)cn2n1 [BAY-1161909] | 6.3
COc1cc(C(=O)N2CC(F)C2)ccc1Nc1nc2ccc(-c3ccc(NC(=O)[C@H](C)c4ccc(F)cc4)cc3)cn2n1 | 7
C=C(c1ccc(OC)c(F)c1)c1cc(NCCC(F)(F)F)c2ncc(-c3ccc(C(=O)NC4CC4)c(C)c3)n2n1 | 0.84

system: not listed separately; assay: Volume of distribution at steady state in Beagle dog at 0.1 to 0.5 mg/kg administered as iv infusion measured up to 24 hrs by HPLC-MS-MS analysis; type: ADME, organism-based, Canis lupus familiaris; conditions: in vivo, read-out: Vdss

SMILES | Vd [L/kg]
COc1ccc(Oc2cc(NCCC(F)(F)F)c3ncc(-c4ccc(C(=O)NC5CC5)c(C)c4)n3n2)c(F)c1F [BAY-1217389] | 3.9
Cc1cc(-c2cnc3c(NCCC(F)(F)F)cc(C4(c5cc(F)ccc5O)CC4)nn23)ccc1C(=O)NC1CC1 | 2.1
COc1cc(S(C)(=O)=O)ccc1Nc1nc2ccc(-c3ccc(NC(=O)[C@H](C)c4ccc(F)cc4)cc3)cn2n1 [BAY-1161909] | 6.7
COc1cc(C(=O)N2CC(F)C2)ccc1Nc1nc2ccc(-c3ccc(NC(=O)[C@H](C)c4ccc(F)cc4)cc3)cn2n1 | 5.2
C=C(c1ccc(OC)c(F)c1)c1cc(NCCC(F)(F)F)c2ncc(-c3ccc(C(=O)NC4CC4)c(C)c3)n2n1 | 2.6
